Data taken from patent US12172995B2, “Substituted indole and indazole compounds” (BRISTOL-MYERS SQUIBB COMPANY, priority 2018, dated 2024).

What was measured:
Type in all cases: cell-based
human TLR8 = biological target: T1, human TLR8 (Homo sapiens, UniProt Q9NR97); test: TLR8 inhibition reporter assay (HEK-Blue SEAP); conditions: HEK-Blue cells overexpressing human TLR8, stimulated with R848 15.9 μM, 22 hour incubation
T1 construct: host or cells: HEK-Blue cells
T1 sequence (Q9NR97 27-1041): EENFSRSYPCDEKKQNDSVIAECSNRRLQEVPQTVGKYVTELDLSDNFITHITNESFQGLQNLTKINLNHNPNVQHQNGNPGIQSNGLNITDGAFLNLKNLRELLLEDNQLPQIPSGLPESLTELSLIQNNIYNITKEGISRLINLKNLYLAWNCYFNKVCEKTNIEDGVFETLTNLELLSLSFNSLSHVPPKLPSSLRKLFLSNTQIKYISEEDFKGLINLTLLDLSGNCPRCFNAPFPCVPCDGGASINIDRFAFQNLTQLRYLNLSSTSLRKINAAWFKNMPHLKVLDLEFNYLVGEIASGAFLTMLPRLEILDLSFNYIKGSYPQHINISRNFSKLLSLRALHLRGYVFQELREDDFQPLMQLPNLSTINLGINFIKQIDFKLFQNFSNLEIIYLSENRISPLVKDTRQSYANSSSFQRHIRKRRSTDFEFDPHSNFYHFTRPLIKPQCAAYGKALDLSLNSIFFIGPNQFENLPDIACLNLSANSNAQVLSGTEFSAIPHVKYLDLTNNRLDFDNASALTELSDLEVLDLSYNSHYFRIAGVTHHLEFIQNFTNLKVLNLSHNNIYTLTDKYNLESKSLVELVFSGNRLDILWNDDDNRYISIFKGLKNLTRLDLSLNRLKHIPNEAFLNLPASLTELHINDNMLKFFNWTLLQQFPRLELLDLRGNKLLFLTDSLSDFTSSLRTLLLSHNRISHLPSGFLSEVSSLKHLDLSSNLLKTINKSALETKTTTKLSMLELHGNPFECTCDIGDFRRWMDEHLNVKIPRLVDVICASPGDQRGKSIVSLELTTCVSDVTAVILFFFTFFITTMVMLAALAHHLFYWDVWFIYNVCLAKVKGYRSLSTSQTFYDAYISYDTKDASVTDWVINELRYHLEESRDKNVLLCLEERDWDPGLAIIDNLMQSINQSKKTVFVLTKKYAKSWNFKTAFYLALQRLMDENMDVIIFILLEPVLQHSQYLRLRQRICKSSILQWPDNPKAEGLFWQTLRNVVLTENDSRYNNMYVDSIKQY
Experimental: (§1) TLR7/8/9 Inhibition Reporter Assays
(§2) HEK-Blue™-cells (Invivogen) overexpressing human TLR7, TLR8 or TLR9 receptors were used for screening inhibitors of these receptors using an inducible SEAP (secreted embryonic alkaline phosphatase) reporter gene under the control of the IFN-β minimal promoter fused to five NF-κB and AP-1-binding sites. Briefly, cells are seeded into Greiner 384 well plates (15000 cells per well for TLR7, 20,000 for TLR8 and 25,000 for TLR9) and then treated with test compounds in DMSO to yield a final dose response concentration range of 0.05 nM to 50 μM. After a 30 minute compound pre-treatment at room temperature, the cells are then stimulated with a TLR7 ligand (gardiquimod at a final concentration of 7.5 μM), TLR8 ligand (R848 at a final concentration of 15.9 μM) or TLR9 ligand (ODN2006 at a final concentration of 5 nM) to activate NF-κB and AP-1 which induce the production of SEAP. After a 22 hour incubation at 37° C., 5% CO2, SEAP levels are determined with the addition of HEK-Blue™ Detection reagent (Invivogen), a cell culture medium that allows for detection of SEAP, according to manufacturer's specifications. The percent inhibition is determined as the % reduction in the HEK-Blue signal present in wells treated with agonist plus DMSO alone compared to wells treated with a known inhibitor.

human TLR9 = biological target: T2, human TLR9 (Homo sapiens, UniProt Q9NR96); test: TLR9 inhibition reporter assay (HEK-Blue SEAP); conditions: HEK-Blue cells overexpressing human TLR9, stimulated with ODN2006 5 nM, 22 hour incubation
T2 construct: host or cells: HEK-Blue cells
T2 sequence (Q9NR96 26-1032): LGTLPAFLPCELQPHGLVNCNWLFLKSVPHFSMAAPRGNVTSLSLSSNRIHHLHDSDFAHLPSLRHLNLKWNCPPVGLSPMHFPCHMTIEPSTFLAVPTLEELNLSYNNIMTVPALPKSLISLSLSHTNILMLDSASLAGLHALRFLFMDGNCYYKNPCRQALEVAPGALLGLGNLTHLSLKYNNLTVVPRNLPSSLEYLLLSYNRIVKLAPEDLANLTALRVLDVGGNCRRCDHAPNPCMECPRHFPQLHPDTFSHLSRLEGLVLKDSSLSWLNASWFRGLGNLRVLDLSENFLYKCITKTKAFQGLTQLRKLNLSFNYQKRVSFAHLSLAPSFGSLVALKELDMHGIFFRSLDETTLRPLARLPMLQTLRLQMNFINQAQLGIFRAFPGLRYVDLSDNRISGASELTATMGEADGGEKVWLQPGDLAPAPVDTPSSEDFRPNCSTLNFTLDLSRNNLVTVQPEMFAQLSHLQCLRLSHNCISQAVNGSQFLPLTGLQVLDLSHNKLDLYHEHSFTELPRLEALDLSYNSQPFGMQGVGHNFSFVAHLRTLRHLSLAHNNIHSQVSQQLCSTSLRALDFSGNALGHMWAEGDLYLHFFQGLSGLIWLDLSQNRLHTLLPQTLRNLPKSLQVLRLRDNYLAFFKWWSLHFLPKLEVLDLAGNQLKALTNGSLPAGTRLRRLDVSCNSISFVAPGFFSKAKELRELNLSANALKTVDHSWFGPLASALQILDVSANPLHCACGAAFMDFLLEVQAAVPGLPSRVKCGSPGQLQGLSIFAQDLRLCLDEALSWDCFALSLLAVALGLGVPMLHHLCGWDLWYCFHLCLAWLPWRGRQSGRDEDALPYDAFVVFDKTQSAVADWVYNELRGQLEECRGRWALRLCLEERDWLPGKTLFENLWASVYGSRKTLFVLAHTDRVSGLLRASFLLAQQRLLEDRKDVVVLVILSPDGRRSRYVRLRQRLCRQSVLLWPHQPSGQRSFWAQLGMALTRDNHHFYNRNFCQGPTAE
Experimental: as §1, §2

human TLR7 = biological target: T3, human TLR7 (Homo sapiens, UniProt Q9NYK1); test: TLR7 inhibition reporter assay (HEK-Blue SEAP); conditions: HEK-Blue cells overexpressing human TLR7, stimulated with gardiquimod 7.5 μM, 22 hour incubation
T3 construct: host or cells: HEK-Blue cells
T3 sequence (Q9NYK1 27-1049): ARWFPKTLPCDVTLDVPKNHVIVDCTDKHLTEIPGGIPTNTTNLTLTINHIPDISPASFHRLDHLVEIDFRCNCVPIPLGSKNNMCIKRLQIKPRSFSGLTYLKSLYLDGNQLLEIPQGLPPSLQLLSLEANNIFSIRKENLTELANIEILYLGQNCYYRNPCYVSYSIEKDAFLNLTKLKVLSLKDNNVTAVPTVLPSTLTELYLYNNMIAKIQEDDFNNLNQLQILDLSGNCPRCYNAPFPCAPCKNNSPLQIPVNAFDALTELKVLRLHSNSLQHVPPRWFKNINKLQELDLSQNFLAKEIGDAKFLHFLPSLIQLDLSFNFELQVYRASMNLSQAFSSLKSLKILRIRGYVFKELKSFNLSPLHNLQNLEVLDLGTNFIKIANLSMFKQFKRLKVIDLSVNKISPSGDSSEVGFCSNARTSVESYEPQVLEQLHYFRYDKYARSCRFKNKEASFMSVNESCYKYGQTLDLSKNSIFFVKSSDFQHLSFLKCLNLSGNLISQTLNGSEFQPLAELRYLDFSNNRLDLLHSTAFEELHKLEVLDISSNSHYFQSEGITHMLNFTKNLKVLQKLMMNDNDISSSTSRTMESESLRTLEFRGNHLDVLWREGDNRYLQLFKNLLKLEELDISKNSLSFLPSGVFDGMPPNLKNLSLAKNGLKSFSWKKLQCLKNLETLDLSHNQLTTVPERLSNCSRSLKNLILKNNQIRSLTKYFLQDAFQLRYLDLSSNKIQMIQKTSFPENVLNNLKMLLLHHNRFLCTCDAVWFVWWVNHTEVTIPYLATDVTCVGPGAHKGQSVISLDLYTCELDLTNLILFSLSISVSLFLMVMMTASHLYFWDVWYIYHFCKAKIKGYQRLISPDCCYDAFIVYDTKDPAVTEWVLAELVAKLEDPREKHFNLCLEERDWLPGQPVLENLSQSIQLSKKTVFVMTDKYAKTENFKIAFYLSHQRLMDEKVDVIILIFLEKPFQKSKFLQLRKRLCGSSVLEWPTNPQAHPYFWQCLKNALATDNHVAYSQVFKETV
Experimental: as §1, §2

Structure (SMILES)	IC50 (human TLR8) [nM]	IC50 (human TLR9) [nM]	IC50 (human TLR7) [nM]
Cc1cc(-c2cc(C)c3ncnn3c2)cc2[nH]nc(C3CCN(C)CC3)c12 [Example 79, 8-methyl-6-(4-methyl-3-(1-methylpiperidin-4-yl)-1H-indazol-6-yl)-[1,2,4]triazolo[1,5-a]pyridine]	53.8	6050	10.3
Cc1cc2c(C3CCNCC3)n[nH]c2cc1-c1cc(C#N)c2ncnn2c1 [Example 84, 6-(5-methyl-3-(piperidin-4-yl)-1H-indazol-6-yl)-[1,2,4]triazolo[1,5-a]pyridine-8-carbonitrile]	15.7	5610	33.4
CCc1cc(-c2cc(C)c3ncnn3c2)cc2[nH]nc(C3CCN(CC(=O)N(C)C)CC3)c12 [Example 8, 2-(4-(4-ethyl-6-(8-methyl-[1,2,4]triazolo[1,5-a]pyridin-6-yl)-1H-indazol-3-yl)piperidin-1-yl)-N,N-dimethylacetamide]	4.5	6070	4
CCc1cc2c(C3CCN(Cc4cn(C)nn4)CC3)n[nH]c2cc1-c1cc(C)c2ncnn2c1 [Example 105, 6-(5-ethyl-3-(1-((1-methyl-1H-1,2,3-triazol-4-yl)methyl)piperidin-4-yl)-1H-indazol-6-yl)-8-methyl-[1,2,4] triazolo[1,5-a]pyridine]	0.1	8780	5.1
Cc1cc(-c2cc3[nH]nc(N4CCNCC4)c3cc2C(C)C)cn2ncnc12 [Example 206, 6-(5-isopropyl-3-(piperazin-1-yl)-1H-indazol-6-yl)-8-methyl-[1,2,4]triazolo[1,5-a]pyridine]	16.4	21900	3.2

More lines, in order of falling IC50 (human TLR8), values ahead:

IC50 (human TLR8) [nM]	IC50 (human TLR9) [nM]	IC50 (human TLR7) [nM]	Structure (SMILES)
1.9	2550	2.4	Cc1cc(-c2cc(C)c3ncnn3c2)cc2[nH]nc(OC3CCC(NCC(=O)N(C)C)CC3)c12 (single isomer, unassigned) [Example 186, N,N-dimethyl-2-((4-((4-methyl-6-(8-methyl-[1,2,4]triazolo[1,5-a]pyridin-6-yl)-1H-indazol-3-yl)oxy)cyclohexyl)amino)acetamide]
1.4	5070	37.2	Cc1cc2c(OCCN(C)C)n[nH]c2cc1-c1cc(C)c2ncnn2c1 [Example 172, N,N-dimethyl-2-((5-methyl-6-(8-methyl-[1,2,4]triazolo[1,5-a]pyridin-6-yl)-1H-indazol-3-yl)oxy)ethan-1-amine]
1.3	4480	21.6	Cc1cc2c(C3CC(N(C)C)C3)n[nH]c2cc1-c1cc(C)c2ncnn2c1 (single isomer, unassigned) [Example 7, N,N-dimethyl-3-(5-methyl-6-(8-methyl-[1,2,4]triazolo[1,5-a]pyridin-6-yl)-1H-indazol-3-yl)cyclobutan-1-amine]
0.5	10300	3	CCc1cc2c(C3CCC(N(C)C)CC3)n[nH]c2cc1-c1cc(C)c2ncnn2c1 (single isomer, unassigned) [Example 94, 4-(5-ethyl-6-(8-methyl-[1,2,4]triazolo[1,5-a]pyridin-6-yl)-1H-indazol-3-yl)-N,N-dimethylcyclohexan-1-amine]
0.4	14500	3.7	CCc1cc2c(C3CCN(CC(=O)N(C)C)CC3)n[nH]c2cc1-c1cc(C)c2ncnn2c1 [Example 91, 2-(4-(5-ethyl-6-(8-methyl-[1,2,4]triazolo[1,5-a]pyridin-6-yl)-1H-indazol-3-yl)piperidin-1-yl)-N,N-dimethylacetamide]
0.2	7560	1.8	Cc1cc(-c2cc3[nH]nc(C4CCC(N5CC6(CCO6)C5)CC4)c3cc2C(C)C)cn2ncnc12 (stereo not drawn) [Example 155, 6-(4-(5-isopropyl-6-(8-methyl-[1,2,4]triazolo[1,5-a]pyridin-6-yl)-1H-indazol-3-yl)cyclohexyl)-1-oxa-6-azaspiro[3.3]heptane]
0.2	15900	0.5	Cc1cc(-c2cc3[nH]nc(C4CCC(N5CC(C)(O)C5)CC4)c3cc2C(C)C)cn2ncnc12 (stereo not drawn) [Example 154, 1-(4-(5-isopropyl-6-(8-methyl-[1,2,4]triazolo[1,5-a]pyridin-6-yl)-1H-indazol-3-yl)cyclohexyl)-3-methylazetidin-3-01]
